Values joined by “and” are separate entries in the source; they are usually repeats but may differ in a detail not shown here. Equal values may be shown once. Read-outs that look alike come from different tables or passages of the source. Numbered stars: 1 amine (or outer) side, 2 acyl side, 3 side chain; on linkers, the order of the positions; unused ones are H or OH. Bridge positions count the residues as written; N and C are the ends. Square brackets hold non-standard residues; d marks the D form. Peptide text beside a SMILES is read from it. AMPB(E) = O=C(c1ccc(/N=N/c2ccc(CN[*:1])cc2)cc1)[*:2]; X2 = O=C(c1ccc(/N=N\c2ccc(CN[*:1])cc2)cc1)[*:2]
Experiments:
[1] = biological target: T1, hV1aR (Homo sapiens, UniProt P37288); test: IP-One accumulation assay, agonist function, HEK293 cells expressing hV1aR; type: cell-based; conditions: for EC50: IP-One, stable HEK293 hV1aR, μM, read-out: V1aR EC50
T1 construct: expressed in transfected cells

[2] = biological target: T2, hV1bR (Homo sapiens, UniProt P47901); test: IP-One accumulation assay, agonist function, HEK293 cells expressing hV1bR; type: cell-based; conditions: for Emax: HEK293, relative to the effect of VP, read-out: V1bR Emax ± SEM; for V1bR E/Z ratio EC50: ratio of EC50 of E- and Z-isomer
T2 construct: expressed in transfected cells
T2 sequence (P47901 1-424): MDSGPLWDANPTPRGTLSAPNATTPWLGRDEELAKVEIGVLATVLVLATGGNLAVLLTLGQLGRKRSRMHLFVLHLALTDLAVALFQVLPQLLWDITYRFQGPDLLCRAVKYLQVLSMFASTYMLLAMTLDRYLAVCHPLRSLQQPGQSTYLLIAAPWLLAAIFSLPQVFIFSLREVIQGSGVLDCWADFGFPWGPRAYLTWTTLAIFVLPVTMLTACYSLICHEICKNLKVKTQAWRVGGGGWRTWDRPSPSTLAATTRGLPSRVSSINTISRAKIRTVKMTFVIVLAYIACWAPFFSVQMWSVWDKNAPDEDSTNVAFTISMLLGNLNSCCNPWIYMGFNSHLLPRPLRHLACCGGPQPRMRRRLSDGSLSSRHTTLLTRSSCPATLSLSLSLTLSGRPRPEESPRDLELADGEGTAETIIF

[3] = Thermal half-life of the Z-isomer (UV/vis, 96-well plate); type: physicochemical; conditions: for t1/2 (thermal half-life, Figure S50): 50 µM in HEPES buffer + 0.25% DMSO, pre-irradiated with 340 nm; for t1/2 (thermal half-life Z to E): preirradiation with 340 nm
Text: All photoprobes were investigated regarding their photophysical properties in aqueous buffer (pH 7.5), mimicking the conditions of the biological functional assays. […] Upon irradiation with 340 nm light for 10 s and monitoring via UV/vis spectroscopy, all compounds could be switched to the Z-isomer, reaching the photostationary state (PSS). Compounds 8–17 containing azobenzene could be switched back to the E-isomer by irradiation at 420 nm for 60 s. Compounds 18 and 19 containing arylazopyrazole could be reverted to the E isomer by using 528 nm light. […] The PSS, when switched to the Z-isomer, was consistently good, with a PSS of 81–95%. […] The thermal half-lives of 10 and 12 were also measured at 37 °C, representing the temperature during the biological assays. As expected, the thermal half-lives decreased, however, the ratio of E and Z isomers remained stable during the incubation period of the biological assays (1 h).
Starting materials and commercial reagents were purchased from Acros, Alfa Aesar, Fisher, Fluka, Fluorochem, Merck (Sigma-Aldrich), TCI and VWR and were used without further purification. Solvents were used in p.a. quality or dried according to common procedures if necessary. All reactions with oxygen- or moisture-sensitive reagents were carried out in glassware that was dried before use by heating under vacuum. Dry nitrogen or argon was used for an inert gas atmosphere. All NMR spectra were measured at room temperature (20 °C) using a Bruker Avance 400 (400 MHz for ^1H and 101 MHz for ^13C) or a Bruker Avance 600 (600 MHz for ^1H and 151 MHz for ^13C) NMR spectrometer. All chemical shifts are reported in δ-scale as parts per million [ppm] (multiplicity, coupling constant J, number of protons) relative to the solvent residual peaks. Coupling constants J are given in hertz [Hz]. Abbreviations used for signal multiplicity: ^1H NMR: s = singlet, d = doublet, dd = doublet of doublets, ddd = doublet of doublets of doublets, dt = doublet of triplets, t = triplet, td = triplet of doublets, q = quartet, and m = multiplet. All mass spectra were recorded on an Agilent Q-TOF 6540 UHD, Finnigan MAT SSQ 710 A, Jeol AccuTOF GCX or ThermoQuest Finnigan TSQ 7000 spectrometer. Absorption spectra were recorded on an UV/vis Agilent Cary 50 spectrometer. Thermal half-lives were measured on a 96-well plate in a Thermo Scientific Multiskan Spectrum. Analytical TLC was performed on silica gel-coated alumina plates (MN precoated TLC-sheets ALUGRAM Xtra SIL G/UV254). Visualization was done using UV light (254 or 366 nm) or staining with ninhydrin solution. Column chromatography was performed on a Biotage Isolera One automated flash purification system with a UV/vis detector. Analytical RP-HPLC was carried out on an Agilent 1220 Infinity LC System (column: P/No 00F-4251-B0, Phenomenex Luna 3 μm C18(2) 100 Å, LC column 150 mm × 2.0 mm). Purification by preparative HPLC was conducted on a preparative HPLC Agilent 1260 Infinity LC System [column: P/No 00G-4253-P0-AX, Phenomenex Luna 10 μm C18(2) 100 Å, LC column 250 mm × 21.2 mm]. The eluent systems were used as specified. After the purification process, solvents were removed by lyophilization. Switching experiments were done with a 340 nm LED (SSC VIOSYS CUD4AF1B, 500 mA, 55 mW), 420 nm LED (ILH-XC01-S410-SC211-WIR200, 800 mA, 440 mW), and 528 nm LED (OSRAM Oslon SSL 80 green, 500 mA, 34 mW). Purity of all photoprobes was >95% as determined by analytical RP-HPLC at 220 nm in DMSO.
1.3.4. Thermal Half-lives
Thermal half-lives were measured in a 96-well plate in a Thermo Scientific Multiskan® Spectrum at 25 °C (and at 37 °C for compounds 10 and 12). The solutions (50 µM in HEPES buffer + 0.25% DMSO) were pre-irradiated with 340 nm. The absorption at 335 nm was measured every 3 h. The data was analyzed using Origin 2021.
0,7 1/2 ExpDec1 Fit of Sheet1 B
Modell ExpDec1 0,35 Modell ExpDec1
0,6 Gleichung y = A 1 *e xp (-x/t1 ) + y0 Gleichung y = A 1 *e xp (-x/t1 ) + y0 […]

[4] = Photostationary state by analytical C18-RP-HPLC; type: physicochemical; conditions: for PSS (E → Z): irradiation with 340 nm, HEPES buffer; for PSS (Z → E): irradiation with 420 nm (8–17) or 528 nm (18, 19)
Description: All photoprobes were investigated regarding their photophysical properties in aqueous buffer (pH 7.5), mimicking the conditions of the biological functional assays.
1.3.2. Photostationary States
Photostationary states (PSS) were measured on analytical C18-RP-HPLC (flow: 0.3 mL/min, solvent A: H2O (0.05% TFA), solvent B: MeCN). To determine the PSS of the photoswitches, the samples (in 0.1 mM in HEPES buffer + 1% DMSO, pH 7.5) were irradiated first with 340 nm to get the Z-isomer. Afterwards, the sample was irradiated with 420 nm (8-17) or 528 nm (18 and 19), respectively, to get back to the E-isomer. The samples were measured at the isosbestic points.

[5] = biological target: T3, hOTR (Homo sapiens, UniProt P30559); test: IP-One accumulation assay, agonist function, HEK293 cells expressing hOTR; type: cell-based; conditions: for potency difference between the E and Z isomers at OTR: EC50 E vs Z; for agonist character at OTR: IP-One assay; for EC50: supplementary CSV
T3 construct: expressed in transfected cells
T3 sequence (P30559 1-389): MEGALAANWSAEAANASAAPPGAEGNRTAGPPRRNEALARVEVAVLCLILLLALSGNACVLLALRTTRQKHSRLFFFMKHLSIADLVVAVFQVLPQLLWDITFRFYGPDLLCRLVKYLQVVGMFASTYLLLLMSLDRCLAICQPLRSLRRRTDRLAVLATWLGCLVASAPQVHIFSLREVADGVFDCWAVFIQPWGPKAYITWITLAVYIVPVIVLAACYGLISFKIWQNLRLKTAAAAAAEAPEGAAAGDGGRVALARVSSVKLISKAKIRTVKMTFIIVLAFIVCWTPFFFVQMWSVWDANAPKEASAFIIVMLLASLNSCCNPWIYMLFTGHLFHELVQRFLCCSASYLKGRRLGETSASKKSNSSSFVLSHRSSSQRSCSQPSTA

[6] = IP-One, stable HEK293 hV1bR, read-out: V1bR EC50 ± SEM
[7] = read-out: activity E-isomer OTR
[8] = read-out: activity Z-isomer OTR

T1 sequence (P37288 whole entry): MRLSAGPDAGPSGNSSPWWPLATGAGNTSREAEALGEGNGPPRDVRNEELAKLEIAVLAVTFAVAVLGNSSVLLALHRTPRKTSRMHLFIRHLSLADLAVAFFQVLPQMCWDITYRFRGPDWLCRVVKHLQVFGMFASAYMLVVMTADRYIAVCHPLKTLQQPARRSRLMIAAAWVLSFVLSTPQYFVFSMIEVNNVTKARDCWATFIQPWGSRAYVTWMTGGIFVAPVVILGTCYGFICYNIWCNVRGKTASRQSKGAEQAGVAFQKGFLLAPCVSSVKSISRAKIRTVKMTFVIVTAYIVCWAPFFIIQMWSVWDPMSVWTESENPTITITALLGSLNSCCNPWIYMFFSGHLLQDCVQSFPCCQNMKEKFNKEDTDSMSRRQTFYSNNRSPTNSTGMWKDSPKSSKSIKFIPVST

Compound | EC50 [1] [µM] | Emax [2] [%] | EC50 [2, 6] [µM] | V1bR E/Z ratio EC50 [2] | t1/2 (thermal half-life, Figure S50) ([3]; 25 °C) [h] | t1/2 (thermal half-life Z to E) ([3]; 25 °C, HEPES buffer pH 7.4) [h] | also measured
N=C(N)NCCC[C@H](NC(=O)c1ccc(/N=N\c2ccc(CNC(=O)[C@@H]3CSSC[C@H](N)C(=O)N[C@@H](Cc4ccc(O)cc4)C(=O)N[C@@H](Cc4ccccc4)C(=O)N[C@@H](CCC(N)=O)C(=O)N[C@@H](CC(N)=O)C(=O)N3)cc2)cc1)C(=O)NCC(N)=O [Z-14] (H-CYFQNC[X2]RG-NH2; disulfide 1-6) | > 10 | 67 ± 2 | 2.37 ± 0.607 | 2.1 |  |  | 
NC(=O)CC[C@@H]1NC(=O)[C@H](Cc2ccccc2)NC(=O)[C@H](Cc2ccc(O)cc2)NC(=O)[C@@H](N)CSSC[C@@H](C(=O)NCc2ccc(/N=N/c3ccc(C(=O)NCC(N)=O)cc3)cc2)NC(=O)[C@H](CC(N)=O)NC1=O [E-13] (H-CYFQNC[AMPB(E)]G-NH2; disulfide 1-6) | > 10 | 45 ± 3 | 11.3 | 1.6 |  |  | 
N=C(N)NCCC[C@H](NC(=O)[C@@H]1CCCN1C(=O)[C@@H]1CSSC[C@H](N)C(=O)N[C@@H](Cc2ccc(O)cc2)C(=O)N[C@@H](Cc2ccc(/N=N/c3ccccc3)cc2)C(=O)N[C@@H](CCC(N)=O)C(=O)N[C@@H](CC(N)=O)C(=O)N1)C(=O)NCC(N)=O [compound 12, [AzbS^3]-VP] |  |  |  |  | 72 | 72 | reduced potency at V1aR compared to VP ([1]; EC50 vs VP): > 1000 fold; t1/2 (thermal half-life, Figure S50) ([3]; 37 °C): 33.6 h; t1/2 (thermal half-life Z to E) ([3]; 37 °C): 33.6 h; potency difference between the E and Z isomers at V1bR (photoswitch window) ([2]; EC50 E vs Z): 5.3 fold and 5 fold
NC(=O)CC[C@@H]1NC(=O)[C@H](Cc2ccccc2)NC(=O)[C@H](Cc2ccc(O)cc2)NC(=O)[C@@H](N)CSSC[C@@H](C(=O)NCc2ccc(/N=N\c3ccc(C(=O)NCC(N)=O)cc3)cc2)NC(=O)[C@H](CC(N)=O)NC1=O [Z-13] (H-CYFQNC[X2]G-NH2; disulfide 1-6) | > 10 | 52 ± 5 | 7.23 ± 1.57 | 1.6 |  |  | 
N=C(N)NCCC[C@H](NC(=O)c1ccc(/N=N/c2ccc(CNC(=O)[C@@H]3CSSC[C@H](N)C(=O)N[C@@H](Cc4ccc(O)cc4)C(=O)N[C@@H](Cc4ccccc4)C(=O)N[C@@H](CCC(N)=O)C(=O)N[C@@H](CC(N)=O)C(=O)N3)cc2)cc1)C(=O)NCC(N)=O [E-14] (H-CYFQNC[AMPB(E)]RG-NH2; disulfide 1-6) | > 10 | 48 ± 2 | 4.97 ± 0.754 | 2.1 |  |  | 
NC(=O)CC[C@@H]1NC(=O)[C@H](Cc2ccccc2)NC(=O)[C@H](Cc2ccc(O)cc2)NC(=O)[C@@H](N)CSSC[C@@H](C(=O)NCc2ccc(/N=N/c3ccc(C(=O)N[C@@H](CCCN=C(N)N)C(=O)NCC(N)=O)cc3)cc2)NC(=O)[C@H](CC(N)=O)NC1=O [compound 14, [AzbL^7]-VP] (H-CYFQNC[AMPB(E)]RG-NH2; disulfide 1-6) |  |  |  |  |  |  | EC50 ([2]; supplementary CSV, read-out: activity Z-isomer V1bR): 2.37 ± 0.607 µM
CC[C@H](C)[C@@H]1NC(=O)[C@H](Cc2ccc(O)cc2)NC(=O)[C@@H](N)CSSC[C@@H](C(=O)NCc2ccc(/N=N/c3ccc(C(=O)NCC(N)=O)cc3)cc2)NC(=O)[C@H](CC(N)=O)NC(=O)[C@H](CCC(N)=O)NC1=O [compound 10, [AzbL^7/8]-OT] (H-CYIQNC[AMPB(E)]G-NH2; disulfide 1-6) |  |  |  |  | 40.8 | 40.8 | PSS (E → Z) [4]: 86%; PSS (Z → E) [4]: 81%; t1/2 (thermal half-life, Figure S50) ([3]; 37 °C): 24 h; t1/2 (thermal half-life Z to E) ([3]; 37 °C): 24 h; potency difference between the E and Z isomers at OTR [5]: 3.1 fold and 3 fold; agonist character at OTR [5]: potent agonists; EC50 [5, 7]: 0.0946 ± 0.019 µM; EC50 [5, 8]: 0.0307 ± 0.004 µM
CC[C@H](C)[C@@H]1NC(=O)[C@H](Cc2ccc(O)cc2)NC(=O)[C@@H](N)CSSC[C@@H](C(=O)NCc2ccc(/N=N/c3ccc(C(=O)N[C@@H](CC(C)C)C(=O)NCC(N)=O)cc3)cc2)NC(=O)[C@H](CC(N)=O)NC(=O)[C@H](CCC(N)=O)NC1=O [compound 11, [AzbL^7]-OT] (H-CYIQNC[AMPB(E)]LG-NH2; disulfide 1-6) |  |  |  |  | 28.8 | 28.8 | PSS (E → Z) [4]: 87%; PSS (Z → E) [4]: 85%; potency difference between the E and Z isomers at OTR [5]: 2 fold; agonist character at OTR [5]: potent agonists; EC50 [5, 7]: 0.263 ± 0.021 µM; EC50 [5, 8]: 0.134 ± 0.017 µM
